Test system: colorectal tissue transcripts
Assay: SAGE of normal, adenoma and cancer colorectal tissue (transcript tag counts)
Parameters: species or system human
Settings: for AD1 (SAGE tag count): adenoma library 1; for AD2 (SAGE tag count): adenoma library 2; for CA1 (SAGE tag count): cancer library 1; for CA2 (SAGE tag count): cancer library 2; for NC1 (SAGE tag count): normal colorectal tissue library 1; for NC2 (SAGE tag count): normal colorectal tissue library 2
Method in brief: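 SAGE libraries from two normal colonic epithelium samples, two colorectal adenomas (FAP patients, >70% neoplastic cells) and two colorectal cancers. Transcripts counted as 15-base 3′ tags from oligo(dT)-selected mRNA; repeated ditags, linkers and MHC-locus tags excluded before statistical library comparison.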

Sequence | AD1 (SAGE tag count) | AD2 (SAGE tag count) | CA1 (SAGE tag count) | CA2 (SAGE tag count) | NC1 (SAGE tag count) | NC2 (SAGE tag count)
TTCTGGTGCG (chemistry not fully specified) | 0 | 0 | 1 | 0 | 8 | 2
TTCTGTAGCC (chemistry not fully specified) | 4 | 2 | 4 | 2 | 13 | 23
TTGGACCTGG (chemistry not fully specified) | 7 | 18 | 12 | 16 | 33 | 31
TTGGGGTTTC (chemistry not fully specified) | 50 | 81 | 67 | 50 | 111 | 184
TTTAACGGCC (chemistry not fully specified) | 36 | 35 | 11 | 30 | 93 | 67
TTTCCTCTCA (chemistry not fully specified) | 6 | 2 | 4 | 3 | 21 | 8
TTTCTCGTCG (chemistry not fully specified) | 2 | 3 | 0 | 2 | 10 | 16
TTTGGTTTCA (chemistry not fully specified) | 0 | 0 | 0 | 0 | 2 | 13
TTTTCTGCAT (chemistry not fully specified) | 1 | 0 | 1 | 2 | 8 | 7
TTTTTACTGA (chemistry not fully specified) | 10 | 10 | 8 | 1 | 32 | 19
